In US20020155443A1, “Metal binding DNA interactive compounds” (priority 2000, published 2002):

Key:
Assay in all cases: DTP Human Tumor Cell Line Screen, sulforhodamine B assay
Assay type in all cases: cell-based
U251 = details: CNS Cancer, 48 h
Method: (§1) The growth inhibitory activity of propargylic sulfone 3.2 against a wide range of human cancer cell lines was determined calorimetrically with sulforhodamine B assay conducted by the National Cancer Institute of the National Institutes of Health.
(§2) The in vitro cytotoxicity of compounds 2.47, 2.48 and 3.2 were investigated using the DTP Human Tumor Cell Line Screen. The concept, rationale and history of development of the DTP Human Tumor Cell Line Screen were described by Boyd (1993;1997)^8.4, 8.6 and Boyd and Paull (1995)^8.5. Further technical details of the NCI screening procedures were described (Monks, et. al.)^8.2 as were the origins and processing of the cell lines (Alley, et. al., Shoemaker, et. al., Stinson, et. al.). Briefly, cell suspensions that were diluted according to the particular cell type and the expected target cell density (5000-40,000 cells per well based on cell growth characteristics) were added by pipet (100 μL) into 96-well microtiter plates. Inoculates were allowed a preincubation period of 24 h at 37° C. for stabilization. Dilutions at twice the intended test concentration were added at time zero in 100-μL aliquots to the microtiter plate wells. Usually, test compounds were evaluated at five 10-fold dilutions. In routine testing, the highest well concentration is 10E-4 M, but for the standard agents the highest well concentration used depended on the agent. Incubations lasted for 48 h in 5% CO2 atmosphere and 100% humidity. The cells were assayed by using the sulforhodamine B assay (Rubinstein, et. al., Skehan, et. al.). A plate reader was used to read the optical densities, and a microcomputer processed the optical densities into the special concentration parameters.

PC-3 = details: Prostate Cancer, 48 h
Method: as §1, §2

SF-539 = details: CNS Cancer, 48 h
Method: as §1, §2

SK-MEL-28 = details: Melanoma, 48 h
Method: as §1, §2

SNB-19 = details: CNS Cancer, 48 h
Method: as §1, §2

OVCAR-5 = details: Ovarian Cancer, 48 h
Method: as §1, §2

SF-268 = details: CNS Cancer, 48 h
Method: as §1, §2

NCI-H460 = details: Non-Small Cell Lung Cancer, 48 h
Method: as §1, §2

MALME-3M = details: Melanoma, 48 h
Method: as §1, §2

HOP-92 = details: Non-Small Cell Lung Cancer, 48 h
Method: as §1, §2

SF-295 = details: CNS Cancer, 48 h
Method: as §1, §2

786-0 = details: Renal Cancer, 48 h
Method: as §1, §2

HCC-2998 = details: Colon Cancer, 48 h
Method: as §1, §2

A498 = details: Renal Cancer, 48 h
Method: as §1, §2

RXF 393 = details: Renal Cancer, 48 h
Method: as §1, §2

SN12C = details: Renal Cancer, 48 h
Method: as §1, §2

TK-10 = details: Renal Cancer, 48 h
Method: as §1, §2

MDA-N = details: Breast Cancer, 48 h
Method: as §1, §2

COLO 205 = details: Colon Cancer, 48 h
Method: as §1, §2

MDA-MB-435 = details: Breast Cancer, 48 h
Method: as §1, §2

SNB-75 = details: CNS Cancer, 48 h
Method: as §1, §2

A-549/ATCC = details: Non-Small Cell Lung Cancer, 48 h
Method: as §1, §2

OVCAR-4 = details: Ovarian Cancer, 48 h
Method: as §1, §2

HOP-62 = details: Non-Small Cell Lung Cancer, 48 h
Method: as §1, §2

UACC-62 = details: Melanoma, 48 h
Method: as §1, §2

LOX IMVI = details: Melanoma, 48 h
Method: as §1, §2

OVCAR-3 = details: Ovarian Cancer, 48 h
Method: as §1, §2

SK-MEL-2 = details: Melanoma, 48 h
Method: as §1, §2

CAKI-1 = details: Renal Cancer, 48 h
Method: as §1, §2

MCF7/ADR-RES = details: Breast Cancer, 48 h
Method: as §1, §2

IGROV1 = details: Ovarian Cancer, 48 h
Method: as §1, §2

NCI-H226 = details: Non-Small Cell Lung Cancer, 48 h
Method: as §1, §2

OVCAR-8 = details: Ovarian Cancer, 48 h
Method: as §1, §2

MCF7 = details: Breast Cancer, 48 h
Method: as §1, §2

UACC-257 = details: Melanoma, 48 h
Method: as §1, §2

NCI-H522 = details: Non-Small Cell Lung Cancer, 48 h
Method: as §1, §2

SW-620 = details: Colon Cancer, 48 h
Method: as §1, §2

EKVX = details: Non-Small Cell Lung Cancer, 48 h
Method: as §1, §2

HL-60 (TB) = details: Leukemia, 48 h
Method: as §1, §2

MOLT-4 = details: Leukemia, 48 h
Method: as §1, §2

DU-145 = details: Prostate Cancer, 48 h
Method: as §1, §2

O=S1(=O)CC#CCOCCOCCOCCOCCOCCOCC#CC1 [Compound 2.47]
IC50 (U251): 16.9 µM
IC50 (PC-3): 18.6 µM
IC50 (SF-539): 11.1 µM
IC50 (SK-MEL-28): 18.9 µM
IC50 (SNB-19): 18.2 µM
IC50 (OVCAR-5): 17.1 µM
IC50 (SF-268): 24.2 µM
IC50 (NCI-H460): 19.3 µM
IC50 (MALME-3M): 2.7 µM
IC50 (HOP-92): 10.9 µM
IC50 (SF-295): 32 µM
IC50 (786-0): 11 µM
IC50 (HCC-2998): 19.1 µM
IC50 (A498): 16.9 µM
IC50 (RXF 393): 15.1 µM
IC50 (SN12C): 13.2 µM
IC50 (TK-10): 13.9 µM
IC50 (MDA-N): 14.2 µM
IC50 (COLO 205): 7.2 µM
IC50 (MDA-MB-435): 13.3 µM
IC50 (SNB-75): 19.9 µM
IC50 (A-549/ATCC): 20.2 µM
IC50 (OVCAR-4): 19.8 µM
IC50 (HOP-62): 21.7 µM
IC50 (UACC-62): 0.28 µM
IC50 (LOX IMVI): 11.1 µM
IC50 (OVCAR-3): 15.8 µM
IC50 (SK-MEL-2): 16.1 µM
IC50 (CAKI-1): 12.2 µM
IC50 (MCF7/ADR-RES): 25.7 µM
IC50 (IGROV1): 16.3 µM
IC50 (NCI-H226): 39.7 µM
IC50 (OVCAR-8): 14.2 µM
IC50 (MCF7): 10.1 µM
IC50 (UACC-257): 11.6 µM
IC50 (NCI-H522): 2.86 µM
IC50 (SW-620): 10.4 µM
IC50 (EKVX): 15.1 µM
IC50 (HL-60 (TB)): 13.5 µM
IC50 (MOLT-4): 3.7 µM
IC50 (DU-145): 32.8 µM
